Reference: patent US10464963B2, “Compounds from invasive Salvinias and methods of using the same” (STEPHEN F. AUSTIN STATE UNIVERSITY, priority 2013, dated 2019)
Read-outs that look alike come from different tables or passages of the source.

Experiments:
[1] = test system: human prostate cancer (PC-3); experiment: Cytotoxicity assay (WST-8), PC-3; type: cell-based; conditions: Homo sapiens
Experimental: (§1) PANC-1 and MRC-5 was cultured in complete growth medium according to the ATCC protocols. Cells were grown at 37° C. and 5% CO2 in humidified air.
(§2) Cytotoxicity of total extracts of S. molesta was tested against PANC-1, A549, PC-3, and MRC-5. Cytotoxicity of the fractions was determined using A549 cells, a human non-small lung cancer cell line. Fractions were tested at 25, 50, and 100 μg/mL. The isolated pure compounds were tested in each of the cultured human tumor and normal cell lines at various concentrations between 1 and 100 μM with three replications. Human tumor and normal cells were inoculated into 96 well microtiter plates in 90 μL at plating densities ranging from 5,000 to 40,000 cells/well (measured by Z2 Coulter Counter of Beckman) depending on the doubling time of individual cell lines. Cell growth and viability was measured by WST-8 (Water Soluble Tetrazolium) assays following a standard protocol (Cell Counting Kit-8, Dojindo Molecular, Maryland). The WST-8 assay measured the relative activity of mitochondrial reductase enzymes in viable cells. A control WST reading (T0) before treatment was measured, then cells were continuously exposed to isolates for 48 h. After WST added and incubated for 2 h, the amount of formazan was measured by using a microplate spectrophotometer (μQuant spectrophotometer, Bio-Tek Instruments, Inc., Vermont) at 450 nm. TC or TD represents the readings of the untreated control or with tested compounds. Percent cell-growth (G) and percent cell-growth inhibition (GI) was calculated as: G=(TD−T0/TC−T0)×100; GI=[1−(TD−T0/TC−T0)]×100 for which TD≥T0; and G=(TD−T0/T0)×100; GI=[1−(TD−T0/T0)]×100 for which TD≤T0. […] Cancer drug doxorubicin was used as the positive controls in the cell-based assays.

[2] = test system: human exocrine pancreatic cancer cells (BxPC-3); experiment: Cell proliferation assay (CCK-8), BxPC-3; type: cell-based; conditions: 12, 24, 48, 72 h, FIG. 3
Experimental: (§3) CCK-8 (Dojindo Molecular, Maryland) was used to measure the proliferation response of salviniol (6) and montbretol (8) against human exocrine pancreatic cancer cell lines (PANC-1 and BxPC-3), according to the manufacturer's instructions. Cell were grown in growth medium plus 10% FBS and 5% antibiotics in 96-well plates and then were treated with various concentrations of test compounds and incubated for 12, 24, 48, and 72 h, respectively. The end of the incubation period, 10% CCK-8 solution was added to the wells. After 2 h incubation, the absorbance at 450 nm was measured. A calibration curve was prepared using the absorbance observed known numbers of viable cells.

[3] = test system: normal human lung fibroblasts cells (MRC-5); experiment: Cytotoxicity assay (WST-8), MRC-5; type: cell-based
Experimental: as §1, §2

[4] = test system: human exocrine pancreatic cancer cells (PANC-1); experiment: Cell proliferation assay (CCK-8), PANC-1; type: cell-based; conditions: 12, 24, 48, 72 h, FIG. 3
Experimental: as §3

[5] = test system: human exocrine pancreatic cancer (BxPC-3); experiment: Cytotoxicity assay (WST-8), BxPC-3; type: cell-based; conditions: Homo sapiens
[6] = test system: human exocrine pancreatic cancer (PANC-1); experiment: Cytotoxicity assay (WST-8), PANC-1; type: cell-based; conditions: Homo sapiens
Experimental: as §1, §2

[7] = test system: human breast cancer (MDA-MB-231); experiment: cells; type: cell-based
Description: Human exocrine pancreatic cancer (PANC-1 and BxPC-3), non-small cell lung cancer (A549), prostate cancer (PC-3), breast cancer (MDA-MB-231), and leukemia (HL-60) were obtained from The University of Texas M. D. Anderson Cancer Center, Houston, Tex., and Normal human lung fibroblasts cells (MRC-5) was purchased from the American Type Culture Collection (ATCC). PC-3, A549 and HL-60 cells were maintained in RPMI 1640 medium supplemented with 10% (v/v) fetal bovine serum and antibiotics (1,000 units/mL penicillin-streptomycin solution, Hyclone). PANC-1 and MRC-5 was cultured in complete growth medium according to the ATCC protocols. Cells were grown at 37° C. and 5% CO2 in humidified air.
Cytotoxicity of total extracts of S. molesta was tested against PANC-1, A549, PC-3, and MRC-5. Cytotoxicity of the fractions was determined using A549 cells, a human non-small lung cancer cell line. Fractions were tested at 25, 50, and 100 μg/mL. The isolated pure compounds were tested in each of the cultured human tumor and normal cell lines at various concentrations between 1 and 100 μM with three replications. Human tumor and normal cells were inoculated into 96 well microtiter plates in 90 μL at plating densities ranging from 5,000 to 40,000 cells/well (measured by Z2 Coulter Counter of Beckman) depending on the doubling time of individual cell lines. Cell growth and viability was measured by WST-8 (Water Soluble Tetrazolium) assays following a standard protocol (Cell Counting Kit-8, Dojindo Molecular, Maryland). The WST-8 assay measured the relative activity of mitochondrial reductase enzymes in viable cells. A control WST reading (T0) before treatment was measured, then cells were continuously exposed to isolates for 48 h. After WST added and incubated for 2 h, the amount of formazan was measured by using a microplate spectrophotometer (μQuant spectrophotometer, Bio-Tek Instruments, Inc., Vermont) at 450 nm. TC or TD represents the readings of the untreated control or with tested compounds. Percent cell-growth (G) and percent cell-growth inhibition (GI) was calculated as: G=(TD−T0/TC−T0)×100; GI=[1−(TD−T0/TC−T0)]×100 for which TD≥T0; and G=(TD−T0/T0)×100; GI=[1−(TD−T0/T0)]×100 for which TD≤T0. To determine the inhibitory potency of active compounds (GI50, 50% cell-growth inhibition), tests were extended to additional concentrations (varying from 0.01 to 100 μM). Cancer drug doxorubicin was used as the positive controls in the cell-based assays.

[8] = test system: human non-small cell lung cancer (A549); experiment: Cytotoxicity assay (WST-8), A549; type: cell-based; conditions: Homo sapiens
Experimental: as §1, §2

human leukemia (HL-60) = experiment: Cytotoxicity assay (WST-8), HL-60; type: cell-based; conditions: Homo sapiens
[9] = Cytotoxicity assay (WST-8), MRC-5; type: cell-based, human; conditions: human
Experimental: as §1, §2

[10] = BXPC-3, Table 1, read-out: Activity against human exocrine pancreatic tumor BxPC-3 (GI50) (converted)
[11] = PANC-1, Table 1, read-out: Activity against human exocrine pancreatic tumor PANC-1 (GI50)
[12] = A549, Table 1, read-out: Activity against human non-small cell lung tumor A549 (GI50) (converted)

With `CC(C)c1cc2c(cc1O)[C@@]1(C)CCCC(C)(C)[C@@H]1C[C@H]2CC1=CCC(O)(C(C)C)CC1` (stereo partly drawn) [Compound 6, 7-(menth-1-en-4-ol)-ferruginol] as the molecule, how does the GI50 ([1]; 48 h, read-out: Cytotoxic activity (GI50) PC-3) read?
The GI50 was 54.2 ± 5.9 µM.

And the GI50 ([1]; Table 1, read-out: Activity against human prostate tumor PC-3 (GI50) (converted))?
The GI50 was 54.2 µM.

And the “Effect on proliferation of BxPC-3 cells (in words)” value [2]?
Its value is “inhibit human pancreatic cancer cell proliferation in a dose-dependent manner”.

What about the GI50 ([3]; human, 48 h) of the same molecule?
The GI50 was 58.4 ± 6.83 µM.

And the “Effect on proliferation of PANC-1 cells (in words)” value [4]?
The value was “inhibit human pancreatic cancer cell proliferation in a dose-dependent manner”.

And the GI50 ([5]; BXPC-3, 48 h, read-out: Cytotoxic activity (GI50) BxPC-3)?
Its GI50 is 87.3 ± 24.5 µM.

And the GI50 [5, 10]?
Its GI50 is 87.3 µM.

What about the GI50 ([6]; PANC-1, 48 h, read-out: Cytotoxic activity (GI50) PANC-1) of the same molecule?
The GI50 was 60.4 ± 16.2 µM.

And the GI50 [6, 11]?
The GI50 was 60.4 µM.

And the GI50 ([7]; MDA-MB-231, 48 h, read-out: Cytotoxic activity (GI50) MDA-MB-231)?
The GI50 was 75 ± 1.37 µM.

What about the GI50 ([7]; MDA-MB-231, Table 1, read-out: Activity against human breast tumor MDA-MB-231 (GI50)) of the same molecule?
The GI50 was 75 µM.

And the GI50 ([8]; A549, 48 h, read-out: Cytotoxic activity (GI50) A549)?
Its GI50 is 62.9 ± 9.63 µM.

What about the GI50 [8, 12] of the same molecule?
The GI50 was 62.9 µM.

And the GI50 (human leukemia (HL-60); HL-60, 48 h, read-out: Cytotoxic activity (GI50) HL-60)?
The GI50 was 48.1 ± 10.9 µM.

What about the GI50 (human leukemia (HL-60); HL-60, Table 1, read-out: Activity against human leukemia HL-60 (GI50) (converted)) of the same molecule?
Its GI50 is 48.1 µM.

Which GI50 ([1]; Table 7, WST-8, 48 h exposure, mean ± S.D., read-out: Cytotoxic activity (GI50) PC-3) does the source give for `CC(C)c1cc2c(cc1O)[C@@]1(C)CCCC(C)(C)C1=C(O)C2=O` [Compound 8, montbretol] here?
Its GI50 is 13.2 ± 2.03 µM.

And the “Effect on proliferation of BxPC-3 cells (in words)” value [2]?
Its value is “inhibit human pancreatic cancer cell proliferation in a dose-dependent manner”.

What about the GI50 at 48 h [9] of the same molecule?
Its GI50 at 48 h is 20 µM.

What about the “Toxicity against normal cell (in words)” value [3] of the same molecule?
Its value is “no toxic against normal cell”.

What about the “Effect on proliferation of PANC-1 cells (in words)” value [4] of the same molecule?
The value was “inhibit human pancreatic cancer cell proliferation in a dose-dependent manner”.

And the GI50 [5, 10]?
Its GI50 is 25 µM.

What about the GI50 ([5]; BXPC-3, Table 7, WST-8, 48 h exposure, mean ± S.D., read-out: Cytotoxic activity (GI50) BxPC-3) of the same molecule?
Its GI50 is 25 ± 13.2 µM.

And the GI50 [6, 11]?
Its GI50 is 23.1 µM.

And the GI50 ([6]; PANC-1, Table 7, WST-8, 48 h exposure, mean ± S.D., read-out: Cytotoxic activity (GI50) PANC-1)?
The GI50 was 23.1 ± 9.16 µM.

And the GI50 [8, 12]?
The GI50 was 11.1 µM.

And the GI50 ([8]; A549, Table 7, WST-8, 48 h exposure, mean ± S.D., read-out: Cytotoxic activity (GI50) A549)?
The GI50 was 11.1 ± 3.16 µM.

What about the GI50 (human leukemia (HL-60); HL-60, Table 7, WST-8, 48 h exposure, mean ± S.D., read-out: Cytotoxic activity (GI50) HL-60) of the same molecule?
Its GI50 is 11.5 ± 3.13 µM.
